{"source": "paper PMC3672920", "about": "“Sulfated Metabolites of Polychlorinated Biphenyls Are High-Affinity Ligands for the Thyroid Hormone Transport Protein Transthyretin” (Environmental Health Perspectives, 2013)", "key": {"[1]": {"test_system": "T1, recombinant hSULT1A1", "T1 construct": "purchased Xenotech; host or cells: E. coli", "test": "Sulfotransferase assay (PAP formation, HPLC)", "type": "in vitro ADME, human", "settings": "200 µM PAPS, 37°C, pH 7.0, 10 min; for substrate for human SULT1A1: 0, 10, 20 or 30 µM OH-PCB, cytosolic extract of E. coli expressing hSULT1A1; for specific activity (rate of sulfation) with hSULT1A1, ranking in words: 10–30 µM OH-PCB", "procedure": "Sulfotransferase assay. The assays for sulfation of OH-PCBs catalyzed by hSULT1A1 were conducted according to a previously published procedure ([Liu et al. 2009]). Assay mixtures containing 0, 10, 20, or 30 µM of the potential substrate were preincubated at 37°C in the presence of 200 µM PAPS and 7.5 mM 2-mercaptoethanol in 250 mM potassium phosphate at pH 7.0. After adding 1 µL of cytosolic extract of E. coli expressing hSULT1A1 (10 µg cytosolic protein), the reaction mixture (total volume 30 µL) was incubated for 10 min before the reaction was terminated by the addition of 30 µL methanol. Samples (20 µL) were subsequently analyzed by HPLC to determine the amount of PAP formed in the reaction ([Sheng et al. 2001])."}, "[2]": {"biological_target": "T2, TTR (Homo sapiens, UniProt P02766)", "T2 construct": "TTR purified from human plasma (> 95%); purchased Sigma-Aldrich; host or cells: human plasma", "test": "HPLC analysis of PCB sulfates after incubation with TTR (stability, reversibility)", "type": "physicochemical", "settings": "5 µM PCB sulfate, 0.5 µM TTR, phosphate buffer pH 7.4, 25°C, up to 120 min", "procedure": "HPLC analysis of PCB sulfates. TTR (0.5 µM) and PCB sulfate (5 µM) were incubated in phosphate buffer (50 mM sodium phosphate, 100 mM NaCl; pH 7.4) at 25°C (± 0.5°C) for 120 min. After 0, 60, and 120 min, 20 µL samples were analyzed for PCB sulfates by chromatography on a C18 HPLC column with a linear acetonitrile gradient (15–95%) in triethylammonium acetate (1% vol/vol; pH 7.5). Detailed HPLC conditions and representative chromatograms are provided in Supplemental Material, Figure S3 (http://dx.doi.org/10.1289/ehp.1206198).\nSupplemental Material, Fi g u r e S6: PCB sulfates are stable upon incubation with TTR, and the interaction is non-covalent. 5µM samples of PCB sulfates were incubated for up t o 120 […]\nsodium phosphate, 100 mM NaCl, pH 7.4) at 25 °C. Their quantitative recover y (as compared to a corresponding 5 µM PCB sulfate standard) by HPLC indicated non- covalent binding interactions between PCB sulfates and TTR.\n(1 picture or pasted object on this page, not shown here)"}, "[3]": {"biological_target": "T3, TTR purified from human plasma (Homo sapiens, UniProt P02766)", "T3 construct": "TTR purified from human plasma (> 95%); purchased Sigma-Aldrich; host or cells: human plasma", "test": "ANS displacement assay (fluorescence probe displacement) for binding to TTR", "settings": "low-affinity (second) binding site on TTR; ligand ≤ 2,000 nM; all data points fit to two-site binding equation; read-out: Kd2", "procedure": "Three fluorescence measurements were averaged per determination, and at least three separate determinations were made at each ligand concentration. The protocol was optimized for ligand concentrations of ≤ 2,000 nM, and assays were conducted at 25°C (± 0.2°C) in quartz cuvettes with a 1-cm path length. […] Binding data were evaluated by fitting the means of each determination to both a one-site plus nonspecific binding equation [y = (Bmax1 × x)/(Kd1 + x) + Ns] and a two-site binding equation [y = (Bmax1 × x)/(Kd1 + x) + (Bmax2 × x)/(Kd2 + x)]. In these equations, Kd1 is the dissociation constant for the TTR-ligand complex and Kd2 is the dissociation constant for the TTR complex with two bound ligands, Bmax1 and Bmax2 are the relative changes in fluorescence required to saturate the respective binding sites and Ns is a constant representing low-affinity interactions. […] The variables x and y represent ligand concentrations and changes in fluorescence (Δ fluorescence), respectively. […] In order to determine Kd2 values, all available data points were fit to the two-site binding equation."}}, "note": "Structures can show the parent of a compound that is named as a salt."}
{"smiles": "O=S(=O)(O)Oc1ccc(-c2cccc(Cl)c2)cc1Cl", "note": "(as salt: ammonium) [4´PCB 11 sulfate, 3,3´-dichloro-4´-sulfooxy-biphenyl]", "values": [{"measurement": "melting point", "result": "220 °C (dec.)"}]}
{"smiles": "Oc1ccccc1-c1ccc(Cl)cc1", "note": "[2´OH-PCB 3, 4´-chloro-biphenyl-2-ol]", "values": [{"measurement": "substrate for human SULT1A1", "setting": "[1]", "result": "substrates"}, {"measurement": "specific activity (rate of sulfation) with hSULT1A1, ranking in words", "setting": "[1]", "result": "highest specific activities"}]}
{"smiles": "O=S(=O)(O)Oc1ccccc1-c1ccc(Cl)cc1", "note": "[2´PCB 3 sulfate, 2´-sulfooxy-4-chloro-biphenyl]", "values": [{"measurement": "recovery of PCB sulfate by HPLC after incubation with TTR (stability)", "setting": "[2]", "result": "quantitatively recovered"}]}
{"smiles": "Oc1cccc(-c2ccc(Cl)cc2)c1", "note": "[3´OH-PCB 3, 4´-chloro-biphenyl-3-ol]", "values": [{"measurement": "substrate for human SULT1A1", "setting": "[1]", "result": "substrates"}, {"measurement": "specific activity (rate of sulfation) with hSULT1A1, ranking in words", "setting": "[1]", "result": "highest specific activities"}]}
{"smiles": "O=S(=O)(O)Oc1cccc(-c2ccc(Cl)cc2)c1", "note": "[3´PCB 3 sulfate, 3´-sulfooxy-4-chloro-biphenyl]", "values": [{"measurement": "recovery of PCB sulfate by HPLC after incubation with TTR (stability)", "setting": "[2]", "result": "quantitatively recovered"}]}
{"smiles": "Oc1ccc(-c2ccc(Cl)cc2)cc1", "note": "[4´OH-PCB 3, 4´-chloro-biphenyl-4-ol]", "values": [{"measurement": "substrate for human SULT1A1", "setting": "[1]", "result": "substrates"}, {"measurement": "specific activity (rate of sulfation) with hSULT1A1, ranking in words", "setting": "[1]", "result": "slightly lower specific activities"}]}
{"smiles": "Oc1ccc(-c2cccc(Cl)c2)cc1Cl", "note": "[4´OH-PCB 11, 3,3´-dichloro-biphenyl-4-ol]", "values": [{"measurement": "Kd", "setting": "[3]", "result": "0.624 ± 0.207", "unit": "µM"}, {"measurement": "substrate for human SULT1A1", "setting": "[1]", "result": "substrates"}, {"measurement": "specific activity (rate of sulfation) with hSULT1A1, ranking in words", "setting": "[1]", "result": "slightly lower specific activities"}]}
{"smiles": "Oc1ccc(-c2ccc(Cl)c(Cl)c2)cc1", "note": "[4´OH-PCB 12, 3´,4´-dichloro-biphenyl-4-ol]", "values": [{"measurement": "Kd", "setting": "[3]", "result": "0.825 ± 0.047", "unit": "µM"}, {"measurement": "substrate for human SULT1A1", "setting": "[1]", "result": "substrates"}, {"measurement": "specific activity (rate of sulfation) with hSULT1A1, ranking in words", "setting": "[1]", "result": "slightly lower specific activities"}]}
{"smiles": "O=S(=O)(O)Oc1ccc(-c2ccc(Cl)cc2)cc1", "note": "[4´PCB 3 sulfate, 4-chloro-4´-sulfooxy-biphenyl]", "values": [{"measurement": "recovery of PCB sulfate by HPLC after incubation with TTR (stability)", "setting": "[2]", "result": "quantitatively recovered"}]}
{"smiles": "O=S(=O)(O)Oc1ccc(-c2cccc(Cl)c2)cc1Cl", "note": "[4´PCB 11 sulfate, 3,3´-dichloro-4´-sulfooxy-biphenyl]", "values": [{"measurement": "recovery of PCB sulfate by HPLC after incubation with TTR (stability)", "setting": "[2]", "result": "quantitatively recovered"}, {"measurement": "Kd", "setting": "[3]", "result": "0.624 ± 0.063", "unit": "µM"}]}
{"smiles": "O=S(=O)(O)Oc1ccc(-c2ccc(Cl)c(Cl)c2)cc1", "note": "[4´PCB 12 sulfate, 3,4-dichloro-4´-sulfooxy-biphenyl]", "values": [{"measurement": "recovery of PCB sulfate by HPLC after incubation with TTR (stability)", "setting": "[2]", "result": "quantitatively recovered"}, {"measurement": "Kd", "setting": "[3]", "result": "0.742 ± 0.058", "unit": "µM"}]}
